Measured values as given in patent US20250275993A1, “GLYCOSYLATION INHIBITORS AS THERAPEUTICS FOR STROKE” (The Regents of the University of California, priority 2022, published 2025).
“Also recorded” adds a separate entry of the source.

Tests used:
[1] = tested on: bovine choroidal microvascular endothelial cells (BCEC); test: BCEC proliferation assay (AlamarBlue / crystal violet); type: cell-based; conditions: for stimulation of BCEC proliferation by other hexosamines and structurally related molecules: with or without VEGF, tested alongside ManN
Protocol: The effect of ManN on EC proliferation was assessed.
AlamarBlue detects mitochondria activity as an indication of cell viability which correlates with cell number at certain ranges.
Proliferation assays with BCECs and BRECs were performed. Log-phase growing BCECs or BRECs (passage <10) were trypsinized, re-suspended and seeded in 96-well plates (no coating) in low-glucose DMEM supplemented with 10% bovine calf serum, 2 mM glutamine, and antibiotics (growth medium), at a density of 1200-1500 cells per well in 200 μl volume. All reagents were added at the indicated final concentrations. After 3-6 days, cells were incubated with AlamarBlue for 4 hrs. Fluorescence was measured at 530 nm excitation wavelength and 590 nm emission wavelength. The experiments were repeated at least three times. […] 20% methanol or 0.05% DMSO served as negative controls. […] Human RMVECs and human adult DMVECs were split into Gelatin-coated 96 wells (2000 cells per well) in low glucose DMEM containing 10% FBS. 1200 cells/well was set up for proliferation assay in low glucose media containing 0.5% FBS. Data was collected at day 4 or 5. HUVEC (p7-10) were grown on gelatin-coated plate until it reached 70-80% confluency.
On the day of the assay, cells were dissociated with 0.05% trypsin, which was neutralized with 0.5% FBS-containing EBM. Cells were briefly spun and then re-suspended in 0.5% FBS-media. Cells were counted and plated in 96-well, 1000 cells/well. Triplicate wells were used for each treatment. Data were collected at day 3, and then cells were fixed in 4% paraformaldehyde for 15 min before adding crystal violet. Cell-covered areas were quantified after taking pictures by Image J software.

[2] = tested on: Bip, CHOP, ATF-6; test: Western blot of UPR responsive proteins in BCECs; type: cell-based, bovine; conditions: for restoration of ATF-6 expression: ManN at 400 μM
[3] = tested on: BCEC confluent monolayers; test: BCEC scratch assay; type: cell-based, bovine; conditions: over 48 hours relative to control
Protocol: BCECs (passage 6-10) and HUVEC (passage 6-8) were used in this assay. Cells were grown until about 80% confluency in 6-well plates, washed twice with PBS and then starved in serum-free DMEM (low Glucose, Hyclone) for 5 hrs before making a “scratch” using 1 ml tip. Cell monolayers were briefly washed once with serum-free media, followed by various treatments in media containing 1% FBS. 48 hrs later, the assay was stopped by adding 2 ml 4% paraformaldehyde. 20 min later, fixed cells were stained with 1 ml Crystal Violet (Sigma). Plates were washed gently under the running tap water and air-dried before taking pictures. Images were acquired by ZEISS Discovery […] microscopy equipped with […] camera. Quantification of wound closure was done using AxioVision LE Rel.4.4 software. Six images were taken for each sample and six measurements (in pixel) were made on each image using AxioVision LE Re1.4.4 software.

[4] = tested on: ERK, AKT, mTOR, CREB, ACC and eNOS; test: Western blot of signal transduction pathways in BCECs; type: cell-based, bovine; conditions: 40 μM
Protocol: Cells were allowed to reach-80% confluency in 12-well plates. […] At various time points, plates were taken out of the incubator and kept on ice. […] Lysates were collected and mixed with 4× Bolt LDS Sample Buffer (Novex, Carlsbad, CA) in the presence of Halt protease inhibitors and phosphatase inhibitor cocktail (ThermoFisher scientific, #NP0007). […] HUVECs (passage 6-8) were plated in EBM-2 basal medium (Lonza) with 0.2% FBS. Following overnight culture, cells were serum-starved in EBM-2 medium for 4 hrs prior to treatment with 50 ng/ml of VEGF165 or vehicle controls for various lengths. Equal amounts of protein lysates were analyzed by SDS-PAGE and blotted with the indicated antibodies. Proteins were transferred using Tris-Glycine buffer with 20% Methanol (Proteonomics grade) (Apex BioResearch Products). Membranes were first incubated with 5% milk in TBST, pH 7.6 (TEKnova, Hollister, CA), followed by blotting with primary and secondary antibodies. ECL anti-rabbit IgG, horseradish peroxidase linked whole antibody from donkey or sheep anti-mouse were obtained from GE Healthcare (UK limited). SuperSignal West Dura Extended Duration substrate was from ThermoFisher Scientific. In some cases, the same PVDF membranes were stripped by 8-min incubation in the Restore Plus Western Blot Stripping Buffer (ThermoFisher Scientific) to show total specific protein expression, followed by second stripping for (3-actin expression.

[5] = tested on: JNK/c-jun; test: Western blot of JNK pathway activation in BCECs; type: cell-based, bovine; conditions: 40 μM; BCECs; FIG. 7E
Protocol: (§1) Cells were allowed to reach-80% confluency in 12-well plates. […] At various time points, plates were taken out of the incubator and kept on ice. Cell monolayers were first washed once with ice-cold PBS before lysis with 250 μI of Pierce RIPA buffer (ThermoFisher Scientific, Rockford, IL) or use 50 mM Tris-HCl (pH 7.6), 150 mM NaCl, 10% Glycerol, 1% NP-40 containing protease/Phosphatase inhibitor cocktail (100×) (Cell signaling, #5872). Lysates were collected and mixed with 4× Bolt LDS Sample Buffer (Novex, Carlsbad, CA) in the presence of Halt protease inhibitors and phosphatase inhibitor cocktail (ThermoFisher scientific, #NP0007). The samples were subjected to SDS-PAGE (Bolt 4-12% Bis-Tris Plus, Invitrogen) using Bolt MES SDS running buffer or NuPAGE 3-8% Tris-Acetate gel using Tris-Acetate SDS running buffer (Novex). HUVECs (passage 6-8) were plated in EBM-2 basal medium (Lonza) with 0.2% FBS. Following overnight culture, cells were serum-starved in EBM-2 medium for 4 hrs prior to treatment with 50 ng/ml of VEGF165 or vehicle controls for various lengths. Equal amounts of protein lysates were analyzed by SDS-PAGE and blotted with the indicated antibodies. Proteins were transferred using Tris-Glycine buffer with 20% Methanol (Proteonomics grade) (Apex BioResearch Products). Membranes were first incubated with 5% milk in TBST, pH 7.6 (TEKnova, Hollister, CA), followed by blotting with primary and secondary antibodies. ECL anti-rabbit IgG, horseradish peroxidase linked whole antibody from donkey or sheep anti-mouse were obtained from GE Healthcare (UK limited). SuperSignal West Dura Extended Duration substrate was from ThermoFisher Scientific. In some cases, the same PVDF membranes were stripped by 8-min incubation in the Restore Plus Western Blot Stripping Buffer (ThermoFisher Scientific) to show total specific protein expression, followed by second stripping for (3-actin expression.

[6] = tested on: ERK and AKT; test: Western blot of ERK and AKT activation in HUVEC and hDMVECs; type: cell-based, human; conditions: 40 μM
Protocol: as §1, with “Membranes were first incubated with 5% milk in TBST, pH 7.6 (TEKnova, Hollister, CA), followed by blotting with primary and secondary antibodies. ECL anti-rabbit IgG, horseradish peroxidase linked whole antibody from donkey or sheep anti-mouse were obtained from GE Healthcare (UK limited). SuperSignal West Dura Extended Duration substrate was from ThermoFisher Scientific. In some cases, the same PVDF membranes were stripped by 8-min incubation in the Restore Plus Western Blot Stripping Buffer (ThermoFisher Scientific) to show total specific protein expression, followed by second stripping for (3-actin expression.” left out

[7] = tested on: retinal vasculature; test: Retinal neovascularization after intravitreal injection; type: in vivo, mouse; conditions: 500 ng ManN or Kif, 200 ng bFGF intravitreally; after seven days
Protocol: The effect of ManN and Kif on inducing retinal neovascularization was assessed. The findings in cultured eye-derived EC were extended to a suitable in vivo model system. The mouse retina has been used extensively over the past decades to study both physiological and pathological angiogenesis. To obtain a detailed description of the retinal vasculature, images from retinal flat mounts were processed for vascular area fraction (ratio of area covered by blood vessels to total retinal area). Using this model, the effects of ManN in retinal neovascularization were assessed. Kif was also tested in this model because it is a water-soluble inhibitor and its mechanism of glycosylation inhibition is well established. In addition, it shares with ManN the ability to activate ERK, AKT and stress pathways in BCEC (FIG. 7E).
Assessment of retinal angiogenesis following intravitreal administration was done. Briefly, 6-8 weeks old C57BL/6 male mice were randomly allocated to different groups and anesthetized with ketamine/Xylazine cocktail. The indicated amounts of ManN, Kif or bFGF (R&D systems, AF-233-NA) in 1 μl of PBS and PBS vehicle control were injected intravitreally with a 33-gauge Hamilton syringe. Seven days after injection, animals were euthanized. Eyes were then enucleated and fixed in 4% paraformaldehyde (PFA) for 30 mins. Retinas were separated and stained with anti-CD31 immunofluorescence (IF) to evidence the vasculature. Evaluations were performed by an investigator blinded to the treatment. For CD31 IF, rat anti-mouse antibody (BD Biosciences, CAT #550274) was diluted 1:100 and incubated overnight at 4° C. After 4-hour incubation with the Alexa Fluor-488-conjugated anti-rat antibody (Life Technologies, A11006), whole mounts were imaged via the 488 nm channel using AIR Confocal STORM super-resolution system (Nikon). Quantification of vascular density in choroids and retina was carried out by Image J. Each experiment was repeated three times with similar results, and each treatment group consists of 5 individual samples.

O=C(O)CCCc1ccccc1 [4-PBA, 4-phenylbutyric acid]
reversal of ManN activity on BCEC proliferation by chaperone ([1]; pre-treating with 1 mM 4-PBA for 4 hours, absence or presence of VEGF): effectively reverse the bell-shaped activity of ManN on BCEC proliferation | effect of chaperone on ManN/VEGF additivity and ManN toxicity ([1]; pre-treatment with 1 mM 4-PBA for 8 hours, FIG. 5D): abrogated additive effects of 40 μM ManN and 5 ng/ml VEGF and protected cells from toxic effect induced by 2 mM ManN | prevention of CHOP induction by ManN ([2]; 2 mM 4-PBA or 500 µM TUDCA, ManN at 400 μM and 5 mM): could prevent the induction of CHOP expression | restoration of ATF-6 expression [2]: restore the expression of ATF-6

O[C@H]1[C@H](O)[C@@H](O)CN2CC[C@H](O)[C@H]12 [Cas, Castanospermine]
BCEC proliferation by glycosylation inhibitors ([1]; 0.01 to 100 μM, 3 days, absence or presence of 5 ng/ml VEGF): stimulated in a dose-dependent fashion | gap closing in BCEC scratch assay by glycosylation inhibitors [3]: significant activity | activation of ERK and AKT in BCECs by glycosylation inhibitors ([4]; FIG. 7E): less obvious; also recorded: did not activate ERK | activation of the JNK pathway by glycosylation inhibitors [5]: able to activate the JNK pathway | Bip expression by glycosylation inhibitors ([2]; media without growth factors for 24 hours): dose-dependent induction of Bip expression | activation of ERK and AKT in human ECs by glycosylation inhibitors [6]: less obvious

Cl.NCC(=O)[C@@H](O)[C@H](O)[C@H](O)CO [D-isoglucosamine, 1-Amino-1-deoxy-D-Fructose hydrochloride]
stimulation of BCEC proliferation by other hexosamines and structurally related molecules [1]: None of these molecules stimulated BCEC proliferation

CC(=O)N[C@@H]1C(O)O[C@H](CO)[C@@H](O)[C@@H]1O (stereo partly drawn) [ManNAc, N-Acetyl-D-Mannosamine, reference compound]
activation of ERK, AKT, mTOR, CREB, ACC and eNOS by other sugars ([4]; BCECs, FIG. 2C): induced a similar activation

CC(=O)N[C@H]1[C@H]([C@H](O)[C@H](O)CO)OC(O)(C(=O)O)C[C@@H]1O (stereo partly shown) [N-Acetylneuraminic acid]
stimulation of BCEC proliferation by other hexosamines and structurally related molecules [1]: None of these molecules stimulated BCEC proliferation

C[C@H](CCC(=O)NCCS(=O)(=O)O)[C@H]1CC[C@H]2[C@@H]3[C@@H](O)C[C@@H]4C[C@H](O)CC[C@]4(C)[C@H]3CC[C@]12C [TUDCA, tauroursodeoxycholic acid]
restoration of ATF-6 expression [2]: much weaker

N[C@H]1C(O)O[C@H](CO)[C@H](O)[C@@H]1O (stereo partly drawn) [galactosamine, D-(+)-Galactosamine]
stimulation of BCEC proliferation by other hexosamines and structurally related molecules [1]: none of these hexosamines had significant stimulatory effects

N[C@H]1C(O)O[C@H](CO)[C@@H](O)[C@@H]1O (stereo partly drawn) [glucosamine, D-(+)-Glucosamine]
stimulation of BCEC proliferation by other hexosamines and structurally related molecules [1]: none of these hexosamines had significant stimulatory effects

CNC[C@H](O)[C@@H](O)[C@H](O)[C@H](O)CO [meglumine, Meglumine]
stimulation of BCEC proliferation by other hexosamines and structurally related molecules [1]: None of these molecules stimulated BCEC proliferation

C[C@@H](O[C@H]1[C@H](O)[C@@H](CO)OC(O)[C@@H]1N)C(=O)O (stereo partly shown) [muramic acid, Muramic acid]
stimulation of BCEC proliferation by other hexosamines and structurally related molecules [1]: None of these molecules stimulated BCEC proliferation

bFGF: bFGF purchased from R&D systems, positive control
increase in density of retinal vessels vs PBS group [7]: about 35%
